Experimental findings from the supplement of paper PMC11997997 are described below.

The test system of test [1] is murine bone marrow-derived macrophages. The test can be described thus: area under cytotoxicity dose-response curve (AUC (% cytotoxicity x dose, relative)); higher = more cytotoxic. The settings on record: duration: 6 days; dose range: 0.13-80 uM, 8 points. The essentials:
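An 8-point, 2.5-fold dilution series (final 80–0.13 μM) was applied for 6 days at 37 °C in 5% CO2 to primary murine bone marrow-derived macrophages plated in opaque 384-well plates. Promega's CellTiter-Glo luminescence assay measured viability, and percent cytotoxicity was normalised against vehicle and positive control wells. The area under the dose–response curve, worked out in GraphPad Prism version 10, is the reported cytotoxicity measure.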

Test [2] concerns Mycobacterium tuberculosis CDC1551 (intracellular, in murine BMDM). The test can be described thus: area under intracellular growth-inhibition dose-response curve (AUC (% inhibition x dose, relative)); higher = more potent. To be noted: duration: 6 days; dose range: 0.13-80 uM, 8 points. An outline of the steps: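 Each value is an area under the growth-inhibition dose–response curve, calculated with GraphPad Prism. Infected primary murine bone marrow-derived macrophages, carrying luciferase-expressing M. tuberculosis CDC1551 at multiplicity of infection 1, were treated for 6 days with an 8-dose, 2.5-fold series (final 80–0.13 μM) in 384-well opaque plates. Readout was by Bright-Glo luciferin assay, normalised to a reference drug control and the lowest-concentration wells.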

Turning to `CC(C)Oc1ccc(/C=N/NC(N)=S)cc1`, the “area under cytotoxicity dose-response curve” value in test [1] turned out to be 17.8. Also, in test [2], the “area under intracellular growth-inhibition dose-response curve” value came out at 275.

For the compound `Cc1ccc2nc(C)cc(S)c2c1`, the “area under cytotoxicity dose-response curve” value in test [1] was under 0. Moreover, in test [2], the “area under intracellular growth-inhibition dose-response curve” value came to 108.

As for `O=S1(=O)C=C(Sc2nc3ccccc3s2)c2ccccc21`, the “area under cytotoxicity dose-response curve” value in test [1] is 179. The “area under intracellular growth-inhibition dose-response curve” value in test [2] was under 0.

For `O=C(N/N=C/c1ccc(O)c([N+](=O)[O-])c1)c1ccncc1`, the “area under cytotoxicity dose-response curve” value in test [1] was under 0. The “area under intracellular growth-inhibition dose-response curve” value in test [2] stood at 256.

As to `Cc1ccc(S(=O)(=O)[O-])cc1.c1cnc2c(c1)ccc1ccc[nH+]c12`, in test [1], the “area under cytotoxicity dose-response curve” value worked out at 114. In test [2], the “area under intracellular growth-inhibition dose-response curve” value is 94.

On to `O=[N+]([O-])c1ccc(CN2CCN(c3ccccc3Cl)CC2)o1`, for which the “area under cytotoxicity dose-response curve” value in test [1] was 63.5. In addition, the “area under intracellular growth-inhibition dose-response curve” value in test [2] was 123.

On to `C/C(=N\NC(=O)c1ccncc1)c1ccc(N2CCOCC2)cc1`, for which the “area under cytotoxicity dose-response curve” value in test [1] amounted to 16.1. Besides, in test [2], the “area under intracellular growth-inhibition dose-response curve” value came to 255.

Turning to `O=C(NC(CO)C(O)c1ccc([N+](=O)[O-])cc1)C(Cl)Cl` (centres undefined), in test [1], the “area under cytotoxicity dose-response curve” value is 21.4. In test [2], the “area under intracellular growth-inhibition dose-response curve” value was found to be 113.

Take `Cc1ccc(S(=O)(=O)N2CCOCC2)cc1C(=O)OCC(=O)NC1CC1`: the “area under cytotoxicity dose-response curve” value in test [1] was found to be 7.09. Also, the “area under intracellular growth-inhibition dose-response curve” value in test [2] was 97.3.

Regarding `O=C(/C=C/c1cccs1)NCc1cccs1`, the “area under cytotoxicity dose-response curve” value in test [1] was determined as 34.6. In test [2], the “area under intracellular growth-inhibition dose-response curve” value was found to be 240.

Regarding `COc1cc2c(cc1OC)CN(C(=O)c1ccc([N+](=O)[O-])o1)CC2`, the “area under cytotoxicity dose-response curve” value in test [1] turned out to be 37. In addition, in test [2], the “area under intracellular growth-inhibition dose-response curve” value came out at 101.

Regarding `C/C(=N/NC(=O)c1ccncc1)c1ccccc1`, in test [1], the “area under cytotoxicity dose-response curve” value was under 0. Besides, the “area under intracellular growth-inhibition dose-response curve” value in test [2] was 243.

Regarding `CCOC(=O)c1c(NC(=O)CN2C(=O)N(C)C3(CCCCC3)C2=O)sc(C(=O)N(C)C)c1C`, in test [1], the “area under cytotoxicity dose-response curve” value was determined as 38.6. The “area under intracellular growth-inhibition dose-response curve” value in test [2] was determined as 65.

For the compound `O=C(COc1ccc(Cl)cc1)NNC(=O)c1ccncc1`, in test [1], the “area under cytotoxicity dose-response curve” value was 9.09. For the same compound, the “area under intracellular growth-inhibition dose-response curve” value in test [2] worked out at 274.

For `COc1ccc(C(=O)Oc2cc(/C=N/NC(N)=S)ccc2OC)cc1`, the “area under cytotoxicity dose-response curve” value in test [1] was 53.3. The “area under intracellular growth-inhibition dose-response curve” value in test [2] was found to be 211.

Take `CCOC(=O)c1cn(Cc2cccc(C)c2)nn1`: in test [1], the “area under cytotoxicity dose-response curve” value was 56.6. The “area under intracellular growth-inhibition dose-response curve” value in test [2] was determined as 98.1.

Turning to `Cc1cc(Br)cnc1NC(=S)Nc1ccc(F)cc1F`, the “area under cytotoxicity dose-response curve” value in test [1] amounted to 33.7. The “area under intracellular growth-inhibition dose-response curve” value in test [2] turned out to be 247.

`COc1cccc2c1nc(C)c1cc(C)oc12`: the “area under cytotoxicity dose-response curve” value in test [1] was under 0. The “area under intracellular growth-inhibition dose-response curve” value in test [2] was 121.

Regarding `O=C(NCc1ccc2c(c1)OCO2)c1ccc(Br)o1`, the “area under cytotoxicity dose-response curve” value in test [1] was found to be 76.4. Besides, the “area under intracellular growth-inhibition dose-response curve” value in test [2] stood at 174.

As to `CCCCCC(=O)N1CCCC1`, the “area under cytotoxicity dose-response curve” value in test [1] stood at 20.6. Also, in test [2], the “area under intracellular growth-inhibition dose-response curve” value came to 139.

For `O=C(N/N=C/C=C/c1ccccc1)c1ccncc1`, the “area under cytotoxicity dose-response curve” value in test [1] was under 0. Also, the “area under intracellular growth-inhibition dose-response curve” value in test [2] was 266.

With `O=C(NC1CCCCCC1)c1ccc(Br)o1`, the “area under cytotoxicity dose-response curve” value in test [1] was 27.7. Moreover, the “area under intracellular growth-inhibition dose-response curve” value in test [2] came to 231.

On to `CC1CCC/C(=N\NC(=O)c2ccncc2)C1` (centres undefined), for which, in test [1], the “area under cytotoxicity dose-response curve” value was 70.8. In addition, the “area under intracellular growth-inhibition dose-response curve” value in test [2] was determined as 186.

Take `NC(=S)N/N=C/c1ccc(-c2ccc([N+](=O)[O-])cc2)o1`: the “area under cytotoxicity dose-response curve” value in test [1] is under 0. Besides, the “area under intracellular growth-inhibition dose-response curve” value in test [2] came to 217.

Turning to `Cc1cccc(OCC(=O)NCc2ccccc2)c1`, in test [1], the “area under cytotoxicity dose-response curve” value was under 0. In test [2], the “area under intracellular growth-inhibition dose-response curve” value came to 210.

Take `CC(NC(=O)c1cccc(F)c1)C1CC2CCC1C2` (centres undefined): the “area under cytotoxicity dose-response curve” value in test [1] is under 0. The “area under intracellular growth-inhibition dose-response curve” value in test [2] amounted to 273.

Consider `O=C(N/N=C/c1c(F)c(F)c(F)c(F)c1F)c1ccc(Cn2cc(Br)cn2)o1`, for which the “area under cytotoxicity dose-response curve” value in test [1] was under 0. The “area under intracellular growth-inhibition dose-response curve” value in test [2] was 154.

In the case of `C/C(=N\NC(N)=S)c1ccccc1`, the “area under cytotoxicity dose-response curve” value in test [1] turned out to be 45.3. Besides, the “area under intracellular growth-inhibition dose-response curve” value in test [2] stood at 219.

For the compound `CC[C@H](CO)NCCN[C@H](CC)CO.Cl`, in test [1], the “area under cytotoxicity dose-response curve” value came out at 52.1. Further, the “area under intracellular growth-inhibition dose-response curve” value in test [2] is 68.5.

On to `CC(=O)NC(=S)Nc1ccc(NC(=O)c2cccnc2Cl)cc1`, for which the “area under cytotoxicity dose-response curve” value in test [1] was under 0. Moreover, the “area under intracellular growth-inhibition dose-response curve” value in test [2] was determined as 262.

Take `O=C(CC1CC2CCC1C2)NCc1cccs1` (centres undefined): the “area under cytotoxicity dose-response curve” value in test [1] was 65.1. In test [2], the “area under intracellular growth-inhibition dose-response curve” value came to 193.

For the compound `CCCC(=O)NC(=S)Nc1ccc(NC(=O)c2cccs2)cc1`, in test [1], the “area under cytotoxicity dose-response curve” value turned out to be 8.63. Besides, the “area under intracellular growth-inhibition dose-response curve” value in test [2] was determined as 261.

As for `O=C(NCc1ccncc1)c1cccc(S(=O)(=O)N2CCc3ccccc32)c1`, the “area under cytotoxicity dose-response curve” value in test [1] amounted to 39.9. The “area under intracellular growth-inhibition dose-response curve” value in test [2] is under 0.

Turning to `COc1cc(/C=N\NC(=O)c2sc(N)nc2C)cc(OC)c1OC`, in test [1], the “area under cytotoxicity dose-response curve” value was found to be 140. Also, the “area under intracellular growth-inhibition dose-response curve” value in test [2] was determined as 35.1.

As for `Cc1ccc(-c2cc(-c3ccc(C)cc3)[n+](-c3ccccc3)c(-c3ccc(C)cc3)c2)cc1.[O-][Cl+3]([O-])([O-])[O-]`, in test [1], the “area under cytotoxicity dose-response curve” value was 85.5. For the same compound, in test [2], the “area under intracellular growth-inhibition dose-response curve” value turned out to be 268.

`O=c1c2ccccc2oc2nc3n(c(=O)c12)CCCS3`: in test [1], the “area under cytotoxicity dose-response curve” value turned out to be 47.5. Besides, the “area under intracellular growth-inhibition dose-response curve” value in test [2] is 223.

For the compound `COc1ccc(/C(C)=N/NC(=O)c2ccncc2)cc1`, the “area under cytotoxicity dose-response curve” value in test [1] is 151. Also, the “area under intracellular growth-inhibition dose-response curve” value in test [2] stood at 229.

Turning to `CNC[C@H](CC1CCCCC1)NC[C@H](Cc1ccccc1)NCCC12CC3CC(CC(C3)C1)C2`, the “area under cytotoxicity dose-response curve” value in test [1] is 43. Further, the “area under intracellular growth-inhibition dose-response curve” value in test [2] was determined as 104.

As for `CCOC(=O)C1=C(COC(=O)c2ccc(OC)c(S(=O)(=O)N3CCOCC3)c2)NC(=O)NC1C` (centres undefined), the “area under cytotoxicity dose-response curve” value in test [1] was 65.5. Moreover, the “area under intracellular growth-inhibition dose-response curve” value in test [2] was 56.9.

As for `O=C(NNC(=O)C1CCCC1)c1cc([N+](=O)[O-])cc([N+](=O)[O-])c1`, in test [1], the “area under cytotoxicity dose-response curve” value stood at 12.3. Besides, the “area under intracellular growth-inhibition dose-response curve” value in test [2] stood at 109.

As for `Cc1nc(N)nc(N)c1/C=C/C(C)(C)c1ccc(Cl)cc1.Cl`, the “area under cytotoxicity dose-response curve” value in test [1] is 5.71. Moreover, the “area under intracellular growth-inhibition dose-response curve” value in test [2] amounted to 230.

For `COc1cc(C(=O)Nc2cc(S(=O)(=O)N3CCOCC3)ccc2N2CCOCC2)ccc1OC(F)F`, the “area under cytotoxicity dose-response curve” value in test [1] is under 0. Moreover, the “area under intracellular growth-inhibition dose-response curve” value in test [2] is 44.6.
